# Laboratory results reported in PubChem BioAssay (NCI).
#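 Cells were grown in 96-well plates and exposed to each compound for 48 hours at five concentrations; endpoints were interpolated linearly between bracketing concentrations, or set to the highest concentration if not reached. TGI is the concentration that stops growth completely.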
# Tests used:
# Test in all cases: NCI tumour cell line growth inhibition, 48 h
# 786-0 renal = system: 786-0 renal
# OVCAR-3 ovarian = system: OVCAR-3 ovarian
# NCI-H226 lung = system: NCI-H226 lung
# U251 CNS = system: U251 CNS
# SF-539 CNS = system: SF-539 CNS
# SNB-75 CNS = system: SNB-75 CNS
# A549 NSCLC = system: A549 NSCLC
# SN12C renal = system: SN12C renal
# MDA-N = system: MDA-N
# HL-60(TB) leukemia = system: HL-60(TB) leukemia
# K-562 leukemia = system: K-562 leukemia
# NCI-H23 lung = system: NCI-H23 lung
# HCT-15 colon = system: HCT-15 colon
# CCRF-CEM leukemia = system: CCRF-CEM leukemia
# SF-268 CNS = system: SF-268 CNS
# MALME-3M melanoma = system: MALME-3M melanoma
# SNB-19 CNS = system: SNB-19 CNS
# IGROV1 ovarian = system: IGROV1 ovarian
# UO-31 renal = system: UO-31 renal
# DU-145 prostate = system: DU-145 prostate
# SK-OV-3 ovarian = system: SK-OV-3 ovarian
# MCF7 breast = system: MCF7 breast
# NCI-H522 lung = system: NCI-H522 lung
# T-47D breast = system: T-47D breast
# EKVX NSCLC = system: EKVX NSCLC
# MDA-MB-231 breast = system: MDA-MB-231 breast
# RPMI-8226 leukemia = system: RPMI-8226 leukemia
# SK-MEL-5 melanoma = system: SK-MEL-5 melanoma
# SK-MEL-28 melanoma = system: SK-MEL-28 melanoma
# SR leukemia = system: SR leukemia
# A498 renal = system: A498 renal
# HCC-2998 colon = system: HCC-2998 colon
# HT29 colon = system: HT29 colon
# HS 578T breast = system: HS 578T breast
# ACHN renal = system: ACHN renal
# RXF 393 renal = system: RXF 393 renal
# LOX IMVI melanoma = system: LOX IMVI melanoma
# NCI-H460 lung = system: NCI-H460 lung
# KM12 colon = system: KM12 colon
# M14 melanoma = system: M14 melanoma
# MDA-MB-435 = system: MDA-MB-435
# OVCAR-5 ovarian = system: OVCAR-5 ovarian
# HCT-116 colon = system: HCT-116 colon
# TK-10 renal = system: TK-10 renal
# OVCAR-4 ovarian = system: OVCAR-4 ovarian
# HOP-62 NSCLC = system: HOP-62 NSCLC
# OVCAR-8 ovarian = system: OVCAR-8 ovarian
# MOLT-4 leukemia = system: MOLT-4 leukemia
# SF-295 CNS = system: SF-295 CNS
# NCI/ADR-RES ovarian = system: NCI/ADR-RES ovarian
# PC-3 prostate = system: PC-3 prostate
# SK-MEL-2 melanoma = system: SK-MEL-2 melanoma
# SW-620 colon = system: SW-620 colon
# CAKI-1 renal = system: CAKI-1 renal
# COLO 205 colon = system: COLO 205 colon
# UACC-62 melanoma = system: UACC-62 melanoma
# UACC-257 melanoma = system: UACC-257 melanoma
# BT-549 breast = system: BT-549 breast
smiles,measurement,setting,value
c1ccc2c(c1)SCCC2NC1=NCCO1 (stereo not drawn),TGI,786-0 renal,> 100 µM
same,TGI,OVCAR-3 ovarian,> 100 µM
same,TGI,NCI-H226 lung,> 100 µM
same,TGI,U251 CNS,> 100 µM
same,TGI,SF-539 CNS,> 100 µM
same,TGI,SNB-75 CNS,> 100 µM
same,TGI,A549 NSCLC,> 100 µM
same,TGI,SN12C renal,> 100 µM
same,TGI,MDA-N,> 100 µM
same,TGI,HL-60(TB) leukemia,> 100 µM
same,TGI,K-562 leukemia,> 100 µM
same,TGI,NCI-H23 lung,> 100 µM
same,TGI,HCT-15 colon,> 100 µM
same,TGI,CCRF-CEM leukemia,> 100 µM
same,TGI,SF-268 CNS,> 100 µM
same,TGI,MALME-3M melanoma,> 100 µM
same,TGI,SNB-19 CNS,> 100 µM
same,TGI,IGROV1 ovarian,> 100 µM
same,TGI,UO-31 renal,> 100 µM
same,TGI,DU-145 prostate,> 100 µM
same,TGI,SK-OV-3 ovarian,> 100 µM
same,TGI,MCF7 breast,> 100 µM
same,TGI,NCI-H522 lung,> 100 µM
same,TGI,T-47D breast,> 100 µM
same,TGI,EKVX NSCLC,> 100 µM
same,TGI,MDA-MB-231 breast,> 100 µM
same,TGI,RPMI-8226 leukemia,> 100 µM
same,TGI,SK-MEL-5 melanoma,> 100 µM
same,TGI,SK-MEL-28 melanoma,> 100 µM
same,TGI,SR leukemia,> 100 µM
same,TGI,A498 renal,> 100 µM
same,TGI,HCC-2998 colon,> 100 µM
same,TGI,HT29 colon,> 100 µM
same,TGI,HS 578T breast,> 100 µM
same,TGI,ACHN renal,> 100 µM
same,TGI,RXF 393 renal,> 100 µM
same,TGI,LOX IMVI melanoma,> 100 µM
same,TGI,NCI-H460 lung,> 100 µM
same,TGI,KM12 colon,> 100 µM
same,TGI,M14 melanoma,> 100 µM
same,TGI,MDA-MB-435,> 100 µM
same,TGI,OVCAR-5 ovarian,> 100 µM
same,TGI,HCT-116 colon,> 100 µM
same,TGI,TK-10 renal,> 100 µM
same,TGI,OVCAR-4 ovarian,> 100 µM
same,TGI,HOP-62 NSCLC,> 100 µM
same,TGI,OVCAR-8 ovarian,> 100 µM
same,TGI,MOLT-4 leukemia,> 100 µM
same,TGI,SF-295 CNS,> 100 µM
same,TGI,NCI/ADR-RES ovarian,> 100 µM
same,TGI,PC-3 prostate,> 100 µM
same,TGI,SK-MEL-2 melanoma,> 100 µM
same,TGI,SW-620 colon,> 100 µM
same,TGI,CAKI-1 renal,> 100 µM
same,TGI,COLO 205 colon,> 100 µM
same,TGI,UACC-62 melanoma,> 100 µM
CN(C)CCSc1cc(-c2ccccc2)c2ccccc2n1,TGI,786-0 renal,25.2 µM
same,TGI,NCI-H226 lung,33.4 µM
same,TGI,U251 CNS,22.5 µM
same,TGI,SF-539 CNS,23 µM
same,TGI,A549 NSCLC,28.5 µM
same,TGI,SN12C renal,32.2 µM
same,TGI,MDA-N,22.7 µM
same,TGI,HL-60(TB) leukemia,> 100 µM
same,TGI,K-562 leukemia,23.5 µM
same,TGI,NCI-H23 lung,23.1 µM
same,TGI,HCT-15 colon,14.6 µM
same,TGI,CCRF-CEM leukemia,33.3 µM
same,TGI,SF-268 CNS,27.1 µM
same,TGI,MALME-3M melanoma,26 µM
same,TGI,SNB-19 CNS,28.5 µM
same,TGI,UACC-257 melanoma,24.8 µM
same,TGI,IGROV1 ovarian,25.5 µM
same,TGI,UO-31 renal,23 µM
same,TGI,DU-145 prostate,28.7 µM
same,TGI,SK-OV-3 ovarian,15.9 µM
same,TGI,MCF7 breast,27.8 µM
same,TGI,NCI-H522 lung,24.1 µM
same,TGI,BT-549 breast,24.8 µM
same,TGI,T-47D breast,34.4 µM
same,TGI,EKVX NSCLC,30.3 µM
same,TGI,MDA-MB-231 breast,24 µM
same,TGI,RPMI-8226 leukemia,> 100 µM
same,TGI,SK-MEL-5 melanoma,4.7 µM
same,TGI,SK-MEL-28 melanoma,17.9 µM
same,TGI,SR leukemia,> 100 µM
same,TGI,A498 renal,33 µM
same,TGI,HT29 colon,35.8 µM
same,TGI,HS 578T breast,21.9 µM
same,TGI,ACHN renal,26.7 µM
same,TGI,RXF 393 renal,15.8 µM
same,TGI,LOX IMVI melanoma,26.6 µM
same,TGI,KM12 colon,29 µM
same,TGI,M14 melanoma,7.01 µM
same,TGI,MDA-MB-435,22.1 µM
same,TGI,OVCAR-5 ovarian,26.2 µM
same,TGI,HCT-116 colon,20.4 µM
same,TGI,TK-10 renal,19.4 µM
same,TGI,HOP-62 NSCLC,22.9 µM
same,TGI,OVCAR-8 ovarian,58.5 µM
same,TGI,SF-295 CNS,28 µM
same,TGI,NCI/ADR-RES ovarian,31.5 µM
same,TGI,PC-3 prostate,24.6 µM
same,TGI,SK-MEL-2 melanoma,28.6 µM
same,TGI,SW-620 colon,23.2 µM
same,TGI,CAKI-1 renal,30.9 µM
same,TGI,COLO 205 colon,4.85 µM
same,TGI,UACC-62 melanoma,9.45 µM
